ChEMBL document CHEMBL3739345, “Design and synthesis of potent and selective inhibitors of BRD7 and BRD9 bromodomains” (Medchemcomm, 2015)
Activity calls are given as the source filed them. The rule behind the calls is not given here.

Tests used:
[1] = biological target: Bromodomain-containing protein 4 (Homo sapiens, UniProt O60885); assay: Binding affinity to human BRD4 at 15 uM by isothermal titration calorimetry
[2] = biological target: T1, Bromodomain-containing protein 9 (Homo sapiens, UniProt Q9H8M2); assay: Binding affinity to human BRD9 by isothermal titration calorimetry
T1 sequence (Q9H8M2 whole entry): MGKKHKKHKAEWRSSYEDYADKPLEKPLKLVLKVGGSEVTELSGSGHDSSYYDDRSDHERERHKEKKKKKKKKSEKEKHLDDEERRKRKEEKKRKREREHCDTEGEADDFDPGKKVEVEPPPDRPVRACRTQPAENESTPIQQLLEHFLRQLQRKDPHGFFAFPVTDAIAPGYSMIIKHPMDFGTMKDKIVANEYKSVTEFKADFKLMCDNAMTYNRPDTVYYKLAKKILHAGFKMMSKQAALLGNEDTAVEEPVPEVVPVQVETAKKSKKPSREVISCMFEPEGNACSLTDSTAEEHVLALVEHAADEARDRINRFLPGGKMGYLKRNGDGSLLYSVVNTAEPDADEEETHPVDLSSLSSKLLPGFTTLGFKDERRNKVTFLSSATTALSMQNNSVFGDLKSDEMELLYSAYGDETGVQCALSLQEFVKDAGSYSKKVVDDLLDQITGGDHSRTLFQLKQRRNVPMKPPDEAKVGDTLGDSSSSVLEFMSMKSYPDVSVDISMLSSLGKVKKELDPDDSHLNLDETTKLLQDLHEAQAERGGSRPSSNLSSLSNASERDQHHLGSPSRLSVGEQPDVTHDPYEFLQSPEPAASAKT

[3] = biological target: T2, Bromodomain-containing protein 9 (Homo sapiens) (UniProt Q9H8M2); assay: Inhibition of human BRD9 expressed in U2OS cells assessed as inhibition of BRD9-chromatin association after 24 hrs by FRAP assay in presence of pan-HDAC inhibitor SAHA; assay type: cell-based
T2 sequence (whole entry): T1 sequence (Q9H8M2 whole entry)

[4] = biological target: T3, Peregrin (Homo sapiens) (UniProt P55201); assay: Binding affinity to human BRPF1B assessed as change in melting temperature at 10 uM by differential scanning fluorimetry
T3 sequence (whole entry): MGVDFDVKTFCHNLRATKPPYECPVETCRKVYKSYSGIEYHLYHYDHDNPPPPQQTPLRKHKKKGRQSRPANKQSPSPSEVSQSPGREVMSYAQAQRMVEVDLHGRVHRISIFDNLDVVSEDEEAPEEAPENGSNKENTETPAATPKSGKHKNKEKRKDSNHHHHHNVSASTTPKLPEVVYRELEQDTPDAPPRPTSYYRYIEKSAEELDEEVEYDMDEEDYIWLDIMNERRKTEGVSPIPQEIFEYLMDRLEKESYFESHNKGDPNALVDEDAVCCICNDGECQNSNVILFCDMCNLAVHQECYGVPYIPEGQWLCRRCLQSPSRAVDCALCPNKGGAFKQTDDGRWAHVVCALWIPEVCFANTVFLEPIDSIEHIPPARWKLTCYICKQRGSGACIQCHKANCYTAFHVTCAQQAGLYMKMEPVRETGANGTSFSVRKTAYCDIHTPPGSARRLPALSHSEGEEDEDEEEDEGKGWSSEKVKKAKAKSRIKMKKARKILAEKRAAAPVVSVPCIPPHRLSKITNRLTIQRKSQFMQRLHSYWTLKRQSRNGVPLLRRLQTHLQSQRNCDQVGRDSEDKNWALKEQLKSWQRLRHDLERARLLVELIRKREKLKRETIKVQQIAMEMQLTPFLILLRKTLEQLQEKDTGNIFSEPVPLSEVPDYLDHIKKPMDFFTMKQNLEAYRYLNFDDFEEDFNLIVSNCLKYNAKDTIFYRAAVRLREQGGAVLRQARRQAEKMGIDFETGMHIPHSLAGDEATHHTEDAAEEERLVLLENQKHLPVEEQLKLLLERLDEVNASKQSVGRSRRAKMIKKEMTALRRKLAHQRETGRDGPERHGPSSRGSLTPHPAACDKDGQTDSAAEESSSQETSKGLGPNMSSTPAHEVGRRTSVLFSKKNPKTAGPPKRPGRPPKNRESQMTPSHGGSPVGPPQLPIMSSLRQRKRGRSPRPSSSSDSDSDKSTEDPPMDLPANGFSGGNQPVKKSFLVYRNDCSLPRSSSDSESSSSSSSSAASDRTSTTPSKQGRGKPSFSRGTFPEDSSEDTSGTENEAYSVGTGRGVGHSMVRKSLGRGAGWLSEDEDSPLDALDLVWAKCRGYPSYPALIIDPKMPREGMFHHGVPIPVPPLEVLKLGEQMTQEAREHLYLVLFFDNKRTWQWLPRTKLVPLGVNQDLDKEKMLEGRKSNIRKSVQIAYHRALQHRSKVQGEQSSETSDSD

[5] = biological target: T4, Bromodomain-containing protein 7 (Homo sapiens, UniProt Q9NPI1); assay: Binding affinity to human BRD7 by isothermal titration calorimetry
T4 sequence (Q9NPI1 whole entry): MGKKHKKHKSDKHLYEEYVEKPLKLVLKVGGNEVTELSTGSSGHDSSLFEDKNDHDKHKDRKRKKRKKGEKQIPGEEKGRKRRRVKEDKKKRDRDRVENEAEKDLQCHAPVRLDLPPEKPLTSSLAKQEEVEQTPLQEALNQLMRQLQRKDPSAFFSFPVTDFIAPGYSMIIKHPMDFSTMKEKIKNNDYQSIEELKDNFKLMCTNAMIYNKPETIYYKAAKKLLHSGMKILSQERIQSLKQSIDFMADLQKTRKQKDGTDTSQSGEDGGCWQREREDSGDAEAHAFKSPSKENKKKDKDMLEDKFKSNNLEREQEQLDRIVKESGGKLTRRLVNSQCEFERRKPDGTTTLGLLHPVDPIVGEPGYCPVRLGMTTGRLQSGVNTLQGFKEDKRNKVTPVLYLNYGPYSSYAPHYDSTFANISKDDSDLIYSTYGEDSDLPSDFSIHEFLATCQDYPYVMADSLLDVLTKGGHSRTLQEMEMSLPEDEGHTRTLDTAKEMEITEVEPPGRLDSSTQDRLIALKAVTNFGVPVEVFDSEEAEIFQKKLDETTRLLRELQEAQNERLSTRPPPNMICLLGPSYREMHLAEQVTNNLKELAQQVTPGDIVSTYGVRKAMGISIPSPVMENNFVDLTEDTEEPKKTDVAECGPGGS

[6] = biological target: Bromodomain-containing protein 2 (Homo sapiens) (UniProt P25440); assay: Binding affinity to human BRD2 at 10 uM by differential scanning fluorimetry
Chain of Bromodomain-containing protein 2 (Homo sapiens) (P25440 whole entry, looked up): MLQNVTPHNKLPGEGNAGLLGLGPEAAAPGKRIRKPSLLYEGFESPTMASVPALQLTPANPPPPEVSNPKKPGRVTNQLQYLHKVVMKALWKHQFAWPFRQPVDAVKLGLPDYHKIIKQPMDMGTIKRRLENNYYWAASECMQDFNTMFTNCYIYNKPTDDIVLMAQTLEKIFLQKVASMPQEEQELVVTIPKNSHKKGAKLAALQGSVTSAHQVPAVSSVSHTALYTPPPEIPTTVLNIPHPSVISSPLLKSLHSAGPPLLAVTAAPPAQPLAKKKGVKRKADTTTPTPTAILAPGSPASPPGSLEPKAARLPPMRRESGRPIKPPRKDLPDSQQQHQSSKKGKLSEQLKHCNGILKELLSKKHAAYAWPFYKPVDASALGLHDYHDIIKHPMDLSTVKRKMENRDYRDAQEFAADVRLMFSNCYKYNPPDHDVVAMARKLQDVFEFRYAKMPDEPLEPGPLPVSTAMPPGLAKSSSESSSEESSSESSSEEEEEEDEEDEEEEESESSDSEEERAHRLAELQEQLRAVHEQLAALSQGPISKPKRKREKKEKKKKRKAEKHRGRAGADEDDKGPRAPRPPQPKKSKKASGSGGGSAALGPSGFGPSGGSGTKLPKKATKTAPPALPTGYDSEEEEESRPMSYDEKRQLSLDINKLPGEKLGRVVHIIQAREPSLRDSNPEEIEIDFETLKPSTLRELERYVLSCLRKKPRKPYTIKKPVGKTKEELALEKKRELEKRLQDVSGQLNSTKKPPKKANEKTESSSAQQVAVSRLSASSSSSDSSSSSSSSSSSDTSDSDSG

**Q.** Which Activity [1] does the source give for `CC(=O)c1cc(-c2cccc3nccn23)c2cc(N3CCOCC3)ccn12` here?
**A.** inactive

**Q.** What about the Kd [2] of the same compound?
**A.** 68 nM

**Q.** What about the inhibition [3] of the same compound?
**A.** Dose-dependent effect

**Q.** What about the ΔTm [4] of the same compound?
**A.** 1.7 °C

**Q.** What about the Kd [5] of the same compound?
**A.** 368 nM

**Q.** And the Activity [6]?
**A.** Active
